Experimental data: article PMC4608580, “Synthesis and Evaluation of Biological Activity of Antimicrobial – Pro-Proliferative Peptide Conjugates” (PLoS ONE, 2015)
Values after ≈ are worked out from the molar mass of the structure shown. Residues, ends and D or L forms follow the SMILES beside them.

Experiments:
[1] = Circular dichroism, alpha-helical content; type: physicochemical; conditions: CD, mean residue ellipticity at 222 nm (Eq 1), peptide 0.4 mg/ml in 30 mM SDS, room temperature
Method: Circullar dichroism spectra of analyzed compounds were recorded on a Jasco J-815 spectropolarimeter using a quartz cell of 1 mm path length between 195–260 nm at room temperature. Peptides at concentration of 0.4 mg/ml were dissolved in water or 30 mM SDS solution. SDS micelle system was used as the simplified model of negatively charged lipid membrane. On the basis of the obtained results the alpha-helical content was determined from the mean residue ellipticities at 222 nm according to Eq 1: %Helix=([θ]obs/([θ]helixx(1−2.57/l))x100, (1) where [θ] obs is the experimentally observed mean-residue ellipticity at 222 nm, [θ]helix is the theoretical ellipticity of peptide of infinite length with a 100% helix population, taken as -39 500 deg·cm^2/dmol, and l is the number of peptide bonds.
Circular dichroism method was applied to obtain a basic information about the secondary structure of the synthesized compounds (with the exception of CAR, CAR3, DAL, CTEN2) in two chemical environments, water and 30 mM SDS. As expected, all the tested compounds in water adopted a random-coil structure, while in the presence of 30 mM SDS most of them formed α-helices with characteristic negative minima around 208 and 220 nm. […] The examples of CD spectra for selected peptides could be seen in supporting information (Figure A in S1 File). On the basis of the experimentally obtained values of the mean residue ellipticities of peptides at 222 nm their alpha-helical content was calculated according to the Eq 1 (Table 1).

HaCaT keratinocytes = test: Cell migration assay (in vitro scratch test); type: cell-based, human; conditions: 25 μg/mL, 24 h
Method: Fibroblasts and keratinocytes were seeded (5x10^5 cells/well) in 6-well plates. When desired monolayer confluence was reached, cells were starved for 24 hours in serum-free DMEM. The monolayer was scratched then with 200μL-pipette tip. The floating cells and cell debris were removed by double washing in PBS, further replaced with a fresh serum-free medium. Wounded monolayers were incubated for the next 24 h in the presence of tested peptides used at concentration of 25 μg/mL and 5 μg/mL of Mitomycin C (Sigma Aldrich) to prevent proliferation. At the end of the experiment medium was removed and the cells were fixed with 3.7% PFA for 5 min, stained for the next 30 min with 0.05% crystal violet solution, washed several times with distilled water and the plates were left inverted for a couple of minutes to drain. The wounded areas were then photographed by means of Zeiss Observer D1 microscope equipped with camera AxioCam and analyzed with AxioVision software (Carl Zeiss, Germany). Migration activity of the cells treated with the tested peptides were expressed as the percentage of the wounded area with respect to the control probe (cell cultures without any of the peptide), assumed as 100%.
An in vitro scratch test was performed to investigate the effect of the analyzed compounds on keratinocytes and fibroblasts migration. Evaluation was based on the efficiency of the invasion of the monolayer cells to the prewounded area within 24 h after stimulation with the appropriate compound added at concetration of 25μg/mL.
Fig 2 Effect of the peptides on HaCaT keratinocytes and fibroblasts cell migration in the in vitro scratch test. HaCaT cells and fibroblasts were grown in 6-well plates until the 100% confluence was reached, then cells were starved for the next 12 hours in DMEM without 10% FCS and scratched once vertically with a 200μL pipette tip. After being washed two times with sterile PBS, a fresh portion of DMEM medium was added and cells were treated with the tested peptides applied at their optimal doses (25 μg/mL). Migration was analyzed after 24 hours by means of Zeiss Observer D1 microscope, wounding areas were analyzed with AxioVision software and expressed as the percentage of the wound width in comparison to the control sample (cells incubated in DMEM without FCS). Control+ FCS corresponds to the sample with cells incubated in the medium containing 10% FCS and was treated as the additional positive control. Data represent the mean ± SD of three independent experiments. *P < 0.05, **P < 0.01, ***P < 0.001 vs. control.

[2] = system: human primary dermal fibroblasts; test: Cell migration assay (in vitro scratch test); type: cell-based; conditions: 25 μg/mL, 24 h, serum-free DMEM, Mitomycin C 5 μg/mL, vs. control without peptide, three independent experiments
Method: Biopsies of healthy human skin were obtained aseptically from three donors (47–69 years old) undergoing circumcision after obtaining their written informed consent. All the procedures were approved by the Ethics Committee of Medical University of Gdansk (NKEBN/483/2011. Issued: 2011-12-19). The samples were washed several times with sterile PBS (Sigma-Aldrich, Germany) containing antibiotic (200 U/mL penicillin and 200 μg/mL streptomycin), after which, the subcutaneous tissue was cut off with a sharp blade. The resulting sheets were cut into small fragments, washed two times with sterile PBS and treated with 6 U/mL dispase II (BD, USA) overnight at 4°C to separate epidermis and dermis. The dermis was then digested with 1.0 mg/mL collagenase type I (from Clostridium histolyticum Sigma-Aldrich, Germany) for 2 hours at 37°C to isolate fibroblasts. Cells were used between the 2nd and 4th passage in all experiments.
Fibroblasts and keratinocytes were seeded (5x10^5 cells/well) in 6-well plates. When desired monolayer confluence was reached, cells were starved for 24 hours in serum-free DMEM. The monolayer was scratched then with 200μL-pipette tip. […] The wounded areas were then photographed by means of Zeiss Observer D1 microscope equipped with camera AxioCam and analyzed with AxioVision software (Carl Zeiss, Germany). Migration activity of the cells treated with the tested peptides were expressed as the percentage of the wounded area with respect to the control probe (cell cultures without any of the peptide), assumed as 100%.
An in vitro scratch test was performed to investigate the effect of the analyzed compounds on keratinocytes and fibroblasts migration. […]
Fig 2 Effect of the peptides on HaCaT keratinocytes and fibroblasts cell migration in the in vitro scratch test. […] Migration was analyzed after 24 hours by means of Zeiss Observer D1 microscope, wounding areas were analyzed with AxioVision software and expressed as the percentage of the wound width in comparison to the control sample (cells incubated in DMEM without FCS). […]

B. cereus = type: cell-based; conditions: broth microdilution, Mueller-Hinton broth, approximately 10^5 CFU/mL, 37°C, 24 h, absorbance 590 nm, at least triplicate
Method: (§1) Luria-Bertani broth (LB) and Sabouraud Dextrose broth (SB) (Biocorp, Poland) were used for cultivation of bacteria and fungi strains, respectively. Antimicrobial activity of peptides was analyzed through determination of MIC (minimal inhibitory concentration) parameter according to the standard microdilution technique performed on 96-well plates. Mueller-Hinton broth (MHB) was used as the working medium for all bacterial strains, while in case of fungi it was additionally supplemented with 2% glucose.
(§2) Briefly, inoculum was prepared from freshly grown cultures of microorganisms being at their exponential phase of growth. Each well of 96-well plates containing 100 μL of serially diluted peptides in PBS (phosphate buffer saline) at concentration ranging from 2 to 250 μg/mL were inoculated with 100 μL of approximately 10^5 CFU/mL of bacterial suspension or about 2.5 x 10^3 CFU/mL of fungi suspended in a double concentrated Mueller-Hinton broth (supplemented with 2% glucose for Candida spps.). Then plates were incubated overnight at 37°C and absorbance was read at 590 nm after 24 h. Cultures without peptide were treated as positive control, while uninoculated Mueller-Hinton broth was defined as negative control. All measurements were run at least in triplicate.
(§3) All peptides were screened against the wide range of microorganisms, including Gram-negative, Gram-positive bacteria and fungi from Candida species (Table 2). Broth microdilution method for MIC determination was used as a standard procedure. All assays were performed on liquid Mueller-Hinton broth, which was additionally supplemented with 2% glucose when fungicidal activity towards Candida spps. was analyzed.

B. subtilis = type: cell-based; conditions: broth microdilution, Mueller-Hinton broth, approximately 10^5 CFU/mL, 37°C, 24 h, absorbance 590 nm, at least triplicate
Method: as §1, §2, §3

[3] = system: Candida glabrata (CCM 8270); type: cell-based; conditions: broth microdilution, Mueller-Hinton broth + 2% glucose, about 2.5 x 10^3 CFU/mL, 37°C, 24 h, absorbance 590 nm, at least triplicate
Description: (§4) Escherichia coli (PCM 2057), Staphylococcus aureus (PCM 2054), Staphylococcus epidermidis (PCM 2118), Pseudomonas aeruginosa (PCM 499) were obtained from Polish Collection of Microorganisms. Fungi strains Candida albicans (CCM 8186), Candida glabrata (CCM 8270), Candida parapsilosis (CCM 8260), Candida krusei (CCM 8271), Candida tropicalis (CCM 8264) were acquired from Czech Collection of Microorganisms.
as §1, §2, §3

[4] = system: Candida albicans (CCM 8186); type: cell-based; conditions: broth microdilution, Mueller-Hinton broth + 2% glucose, about 2.5 x 10^3 CFU/mL, 37°C, 24 h, absorbance 590 nm, peptide 2 to 250 μg/mL, at least triplicate
Description: as §4, §1, §2, §3

[5] = system: Pseudomonas aeruginosa (PCM 499); type: cell-based; conditions: broth microdilution, Mueller-Hinton broth, approximately 10^5 CFU/mL, 37°C, 24 h, absorbance 590 nm, at least triplicate
Description: as §4, §1, §2, §3

[6] = system: Staphylococcus aureus (PCM 2054); type: cell-based; conditions: broth microdilution, Mueller-Hinton broth, approximately 10^5 CFU/mL, 37°C, 24 h, absorbance 590 nm, at least triplicate
Description: as §4, §1, §2, §3

[7] = system: Candida parapsilosis (CCM 8260); type: cell-based; conditions: broth microdilution, Mueller-Hinton broth + 2% glucose, about 2.5 x 10^3 CFU/mL, 37°C, 24 h, absorbance 590 nm, at least triplicate
Description: as §4, §1, §2, §3

[8] = system: Candida tropicalis (CCM 8264); type: cell-based; conditions: broth microdilution, Mueller-Hinton broth + 2% glucose, about 2.5 x 10^3 CFU/mL, 37°C, 24 h, absorbance 590 nm, at least triplicate
Description: as §4, §1, §2, §3

[9] = system: Escherichia coli (PCM 2057); type: cell-based; conditions: broth microdilution, Mueller-Hinton broth, approximately 10^5 CFU/mL, 37°C, 24 h, absorbance 590 nm, at least triplicate
Description: as §4, §1, §2, §3

[10] = system: Candida krusei (CCM 8271); type: cell-based; conditions: broth microdilution, Mueller-Hinton broth + 2% glucose, about 2.5 x 10^3 CFU/mL, 37°C, 24 h, absorbance 590 nm, at least triplicate
Description: as §4, §1, §2, §3

[11] = system: Staphylococcus epidermidis (PCM 2118); type: cell-based; conditions: broth microdilution, Mueller-Hinton broth, approximately 10^5 CFU/mL, 37°C, 24 h, absorbance 590 nm, at least triplicate
Description: as §4, §1, §2, §3

CC(C)C[C@H](NC(=O)[C@H](Cc1ccccc1)NC(=O)CNC(=O)[C@@H](C)NC(=O)[C@@H](N)Cc1ccc(O)cc1)C(=O)N[C@@H](CCCNC(=N)N)C(=O)NCCOCCOCC(=O)N[C@@H](CCCCN)C(=O)N[C@@H](CCCCN)C(=O)N[C@H](C(=O)N[C@H](C(=O)N[C@@H](Cc1ccccc1)C(=O)N[C@@H](Cc1c[nH]c2ccccc12)C(=O)N[C@H](C(=O)N[C@@H](CCCCN)C(=O)N[C@@H](Cc1ccccc1)C(=O)N[C@@H](CCCCN)C(N)=O)C(C)C)C(C)C)C(C)C [DAL-PEG-KSLW] (HELM PEPTIDE1{Y.[dA].G.F.L.R.[O=C(COCCOCCN[*:1])[*:2]].K.K.V.V.F.W.V.K.F.K.[am]}$$$$V2.0; N-terminus assumed)
α-helicity [1]: 22% | Effect on keratinocyte migration (scratch test), in words (HaCaT keratinocytes; serum-free DMEM, Mitomycin C 5 μg/mL, vs. control without peptide, three independent experiments): best results | Keratinocyte migration higher than that of the native peptides KSLW and DAL (HaCaT keratinocytes; scratch test): about 15% | Effect on fibroblast migration (scratch test), in words [2]: highest migration rate | MIC B. cereus (B. cereus): 125 µg/mL (≈ 57.9 µM) | MIC B. subtilis (B. subtilis): 15.6 µg/mL (≈ 7.22 µM) | MIC C.glabrata [3]: 125 µg/mL | MIC C. albicans [4]: 31.3 µg/mL | MIC P. aeruginosa [5]: 62.5 µg/mL (≈ 28.9 µM) | MIC S.aureus [6]: 62.5 µg/mL (≈ 28.9 µM) | MIC C. parapsilosis [7]: 62.5 µg/mL | MIC C.tropicalis [8]: 7.8 µg/mL | MIC E.coli [9]: 7.8 µg/mL (≈ 3.61 µM) | MIC C.krusei [10]: 31.3 µg/mL | MIC S. epidermidis [11]: 3.9 µg/mL (≈ 1.8 µM)
